We go through 60 compounds from PubChem BioAssay (NCI).

What all share (test): inhibition of tumour cell growth, NCI panel, 48 h
For assay [1], the system named is BT-549 breast.
For assay [2], the system named is MDA-N.
Assay [3] has as its system DMS 114 small cell lung.
The subject of assay [4] is DLD-1 colon.
In assay [5] the test system is LXFL 529 NSCLC.
Assay [6] deals with XF 498 CNS.
For assay [7], the system named is DMS 273 small cell lung.
The subject of assay [8] is KM20L2 colon.
Assay [9] relates to HOP-18 NSCLC.

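Where inhibition never reached the appropriate level, the endpoint shown equals the highest concentration tested. Otherwise, values were interpolated linearly from a five-concentration, 48-hour dose response in 96-well plates. Abbreviation: GI50, concentration required for 50% inhibition of growth. TGI: total growth inhibition.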

With `CC1(C)CCc2c(c(N=Nc3ccccc3F)c3ccccc3c2O)O1`, in assay [1], the GI50 is 33.5 µM and the TGI was more than 100 µM.
For the compound `COc1cc2c(cc1O)c(=O)n(CCN(C)C)c1c3cc4c(cc3ncc21)OCO4`, in assay [1], the GI50 is 0.025 µM and the TGI was 0.915 µM.
In the case of `COc1ccc(CNCCCN2C(=O)c3ccc4c5c(ccc(c35)C2=O)C(=O)N(CCCNCc2ccc(OC)c(OC)c2OC)C4=O)c(OC)c1OC`, in assay [1], the GI50 was 0.262 µM and the TGI is 0.503 µM.
With `Cc1c[nH]c(=O)n(Cc2nnc(CCC(=O)c3nc4ccccc4[nH]3)o2)c1=O`, in [1], the GI50 is 0.717 µM and the TGI came to 48.7 µM.
`OCCN(CCO)c1nc(N2CCCCC2)c2nc(N(CCO)CCO)nc(N3CCCCC3)c2n1` came in with a TGI in assay [2] of more than 100 µM.
Turning to `CC(=O)Nc1ccc(OC(C)=O)cc1`, in assay [1], the GI50 was less than 0.01 µM and the TGI was 0.165 µM.
Turning to `Cc1ccc2[nH]c(O)c(N=Nc3ccccc3[N+](=O)[O-])c2c1`, the TGI in [2] was more than 100 µM; in assay [1], more than 94.3 µM.
For `C#CCOC(=O)/C=C/C(=O)Oc1ccc2c(C)cc(=O)oc2c1`, in assay [1], the GI50 is more than 100 µM and the TGI is more than 100 µM.
For the compound `Cc1ccc2[nH]c(C(=O)NN3C(=O)C(C)SC34CCC(C)CC4)c(-c3ccccc3)c2c1` (stereo not drawn), in [1], the GI50 was 19.4 µM and the TGI amounted to 36.3 µM.
On to `COc1ccc2nc3c(cc2c1)C(=O)CC(c1ccccc1)C3` (stereo not drawn), for which, in assay [1], the GI50 was 1.36 µM and the TGI was more than 100 µM.
On to `Cc1cccc(N=Cc2ccc(N(CCC#N)S(=O)(=O)c3ccccc3)cc2C)c1`, for which the TGI in assay [3], in assay [4], in assay [5], in assay [6], in [7] and in assay [8] was more than 100 µM throughout.
Regarding `COc1ccc(-c2oc3c(OC)c(OC)c(OC)c(O)c3c(=O)c2OC)cc1O`, the TGI in assay [3] is 0.0784 µM; in [4], more than 100 µM; in assay [5], more than 100 µM; in [6], 0.68 µM; in [7] it was 16.3 µM; in [8], 26.1 µM. Besides, the values for the GI50 in [4] and in assay [5] were 0.0674 µM and less than 0.01 µM, respectively.
For `C[N+](C)(C)C1CC([N+](C)(C)C)C2c3ccccc3C21` (stereo not drawn), the TGI in assay [3], in [4], in assay [5], in assay [6], in assay [7] and in assay [8] was more than 100 µM each time.
Consider `O=c1cc(-c2ccccc2)oc2c1ccc1ccccc12`, for which, in assay [1], the GI50 was 21 µM and the TGI was 55.8 µM.
For `C/C(=C\C(C[C@](C)(O)C(O)CCC#C[Si](C)(C)C)S(=O)(=O)c1ccccc1)CC/C=C/CO[Si](C)(C)C(C)(C)C` (stereo partly drawn), the TGI in assay [3] worked out at 32.9 µM; in assay [4], 48.2 µM; in [6], 26.2 µM; in [7], 30.6 µM; in assay [8] it was 24 µM.
Regarding `NNc1nc2ccccc2o1`, the TGI in assay [2] and in assay [1] was more than 100 µM in each case.
With `C=CCOc1ccc(N)c([N+](=O)[O-])c1`, the TGI in [2] and in [1] was more than 100 µM in each case.
Take `COc1ccc(-c2cc(-c3ccc(OC)cc3)nc(NCCCNc3ccnc4cc(Cl)ccc34)n2)cc1`: in [1], the GI50 was 13.1 µM and the TGI was determined as 27.8 µM.
Turning to `[Co].[O-]c1cccnc1C=Nc1ccccc1.[OH3+]`, the GI50 was more than 100 µM in [3]; 90.7 µM in assay [4]; 47.2 µM in assay [5]; more than 100 µM in assay [6]; more than 100 µM in [7]; more than 100 µM in assay [8]. For the same compound, the TGI in [3], in assay [4], in assay [5], in [6], in assay [7] and in assay [8] was more than 100 µM throughout.
Turning to `Fc1ccc(-c2ncn(CCCN3CCOCC3)c2-c2ccncc2)cc1`, in assay [1], the GI50 is more than 25 µM and the TGI is more than 25 µM.
`CCOC(=O)Nc1ccc2c(c1)C(=O)N(CC)c1ccccc1O2`: in assay [1], the GI50 was 0.184 µM and the TGI was 16.9 µM.
As for `Cc1ccc(-c2nc(/C=N/Nc3cc(C)nc4ccc(Br)cc34)c(C)o2)cc1`, in assay [1], the GI50 was 14 µM and the TGI was 29.3 µM.
Turning to `Cc1nc(-n2nc(-c3ccccc3)cc2-c2ccccc2)sc1C(=O)/C=C/c1ccc([N+](=O)[O-])cc1`, the TGI in assay [4] was 36.2 µM; in assay [9] it was more than 100 µM; in assay [7] it was more than 100 µM; in [2] it was 59.8 µM; in assay [1], 39.5 µM; in [8], more than 100 µM.
For the compound `CC(=O)OC1=C2CC[C@@H]3C(CC[C@@]4(C)C3CC[C@@H]4OC(C)=O)[C@@]2(C)CC(C#N)C1=O` (stereo partly drawn), the TGI is 37.1 µM in assay [3]; 69.8 µM in [4]; 91.3 µM in assay [5]; 80.8 µM in assay [6]; 74 µM in assay [7]; more than 100 µM in assay [8].
Regarding `C#Cc1cccc(NC(=O)c2cccc(NC(=O)CCl)c2)c1`, in assay [1], the GI50 was 17.8 µM and the TGI amounted to 70.4 µM.
For the compound `Cc1cc(=O)oc2cc3oc(N(C)c4ccccc4)nc(=O)c3cc12`, the TGI in [2] and in [1] was more than 100 µM in each case.
Turning to `O=c1oc2ccc(Cl)cc2c(=O)n1-c1ccc(F)cc1F`, in assay [1], the GI50 is 1.09 µM and the TGI was found to be 5.89 µM.
Regarding `COc1c(C)c(OC)c(C(=O)CC(C)C)c(OC)c1C`, the TGI in [2] and in assay [1] was more than 100 µM in each case.
Regarding `CS(=O)(=O)NNS(=O)(=O)c1ccc(F)cc1`, the TGI in assay [3], in assay [4], in [5], in assay [7] and in assay [8] was more than 100 µM each time.
Turning to `O=C(Nc1n[nH]c2nc(-c3ccc(O)cc3)c(Br)cc12)C1CC1`, in assay [1], the GI50 was 5.78 µM and the TGI turned out to be 19.8 µM.
Regarding `O=[N+]([O-])c1cc(I)cc(/C=N/NS(=O)(=O)c2ccc(Cl)cc2)c1O`, the TGI in assay [4] was 59.4 µM; in [5], 37.2 µM; in [9] it was 45.5 µM; in assay [7], 38.5 µM; in assay [8], more than 100 µM.
Regarding `CC(C)=Cc1cccc2[nH]c(O)c(N=Nc3ccc(S(N)(=O)=O)cc3)c12`, in assay [1], the GI50 is more than 22.8 µM and the TGI is more than 25 µM.
On to `O=S(=O)(O)n1ccnc1` (tested in a mixture with another compound), for which the TGI in [2] and in [1] was more than 100 µM each time.
With `CN(/N=C/c1ccccc1O)c1ccc2ccccc2n1`, the results for the TGI in assay [2] and in assay [1] were more than 100 µM and 61.1 µM, respectively.
On to `CCc1cccc(C(C)CC)c1NC(=O)C(=O)Cc1nc2ccccc2o1` (stereo not drawn), for which the TGI in assay [3], in assay [4], in assay [5], in assay [6], in assay [7] and in assay [8] was more than 50 µM throughout.
On to `O=C(CC1(O)C(=O)Nc2ccccc21)c1ccc(Cl)cc1Cl` (stereo not drawn), for which the TGI in [3], in [4], in assay [5], in assay [6], in [7] and in [8] was more than 100 µM in each case.
As to `CCN(CC)CCCNc1n[n+]([O-])c2ccccc2[n+]1[O-]`, the TGI in [2] and in assay [1] was more than 100 µM each time.
Take `CC1SC2=NC3=C(c4ccccc4C3=O)C(c3ccccc3Cl)N2C1=O` (stereo not drawn): the TGI in assay [3], in [4], in assay [5], in [6], in assay [7] and in assay [8] was more than 100 µM in each case.
With `CCCCc1n(Cc2ccc3ccccc3n2)cc[n+]1Cc1ccc2ccccc2n1`, in assay [1], the GI50 is 0.97 µM and the TGI turned out to be 5.86 µM.
For the compound `CNS(=O)(=O)NNS(=O)(=O)c1ccc(F)cc1`, the TGI in assay [3], in assay [4], in assay [5], in assay [6], in assay [7] and in assay [8] was more than 100 µM throughout.
For `COc1cc(NS(C)(=O)=O)ccc1Cc1c2ccccc2nc2ccccc12`, in assay [1], the GI50 is 0.267 µM and the TGI stood at 1.97 µM.
In the same order, the values of `COC(=O)C1=C(C(=O)ON)[C@@H]2C=C[C@@]1([C@@H](Cc1ccccc1)Nc1ccccc1)O2` are 7.06 µM and 19.6 µM.
With `CO/C=C(\Br)c1ccc2c(c1)OCO2`, the TGI in assay [3], in [5], in assay [6] and in assay [7] was more than 100 µM in each case.
In the case of `CCN1C(=O)N(CC)C2C1NN=c1s/c(=C\c3ccc(C(F)(F)F)cc3)c(=O)n12` (stereo not drawn), in [1], the GI50 was 0.783 µM and the TGI was more than 20.8 µM.
With `FC(F)(F)c1cc(NC(=S)N2c3ccccc3-n3cccc3C2c2cccnc2)cc(C(F)(F)F)c1` (stereo not drawn), in [2], the GI50 was 11.6 µM and the TGI was 32.5 µM. In assay [1], the GI50 is 8.96 µM and the TGI came to 45.7 µM.
On to `CC1(C)N=c2cc3c(cc2N1c1ccc(Cl)cc1)=Nc1ccccc1N3c1ccc(Cl)cc1`, for which, in assay [1], the GI50 is 3.5 µM and the TGI came out at 60.8 µM.
With `O=[N+]([O-])c1ccc(N=Nc2c(Cl)cc(O)cc2Cl)cc1`, in assay [1], the GI50 is 1.67 µM and the TGI was 6.41 µM.
On to `N#CC(C(=O)CCC(=O)Nc1cccc(C(F)(F)F)c1)c1ccccc1` (stereo not drawn), for which the TGI in assay [3], in assay [4], in assay [5], in assay [6], in assay [7] and in [8] was more than 100 µM each time.
As for `O=C(c1ccccc1)C1OC1C(=O)c1ccccc1` (stereo not drawn), in assay [1], the GI50 was 3.28 µM and the TGI came to 14.2 µM.
Consider `CCOC(=O)CNC(=O)OCc1ccccc1`, for which the TGI in assay [3], in assay [4], in assay [5], in assay [6] and in assay [7] was more than 100 µM throughout.
On to `CCn1c(SCC(=O)Nc2cc(C(F)(F)F)ccc2Cl)nc2ccccc2c1=O`, for which, in assay [1], the GI50 is 35 µM and the TGI is more than 100 µM.
As to `Cc1nc2ccccc2c(/C=C/c2ccccc2)c1C(=O)/C=C/c1ccc(C(F)(F)F)cc1`, in [1], the GI50 was 1.25 µM and the TGI worked out at 2.89 µM.
In the same order, the values of `O=C(Nc1ccccc1Cl)c1ccc(NC2=C(Cl)C(=O)N(C3CCCCC3)C2=O)cc1` are 20.7 µM and 47.1 µM.
As to `CCCS(=O)(=O)Nc1cccc(Nc2ncnc3cc(NC(=O)CCl)ccc23)c1Cl`, in [1], the GI50 was 2.42 µM and the TGI came to 6.69 µM.
On to `COc1ccc(C2CC(c3ccc(OC)cc3O)=NN2c2ccc(S(N)(=O)=O)cc2)cc1` (stereo not drawn), for which, in assay [1], the GI50 was 13.5 µM and the TGI was found to be 57.2 µM.
`O=C(O)CN1C(=O)CN=C(c2ccccn2)c2cc(Cl)ccc21`: the TGI in assay [2] and in [1] was more than 100 µM throughout.
`O=C1/C(=C/c2ccc(F)cc2)CN(C(=O)C(Cl)Cl)C/C1=C\c1ccc(F)cc1`: in assay [1], the GI50 was 0.253 µM and the TGI worked out at 0.81 µM.
`N#CC1(N2CCCC2)CCC2(CC1)OCCO2`: the TGI is more than 100 µM in assay [3], more than 10 µM in [7] and more than 100 µM in assay [8].
For the compound `CCOC(=O)c1c2c(n3ccc(NC(=O)CCN4CCCCC4)cc13)C(=O)c1ncccc1C2=O`, in [1], the GI50 is 4.1 µM and the TGI stood at 21.4 µM.
`O=C(c1ccc2ccccc2c1)c1c(C(F)(F)F)n([O-])c2cc(C(F)(F)F)ccc2[n+]1=O`: in assay [1], the GI50 was 1.43 µM and the TGI is 2.9 µM.
